In patent US5827895A, “Hexahydrolupulones useful as anticancer agents” (Regents of the University of Minnesota, priority 1996, dated 1998):
≈ marks a conversion by molar mass, not a printed value. Entries after “also recorded” stand apart in the source; their conditions may differ. Like-named read-outs stand apart in the source and are kept apart here.

Key:
[1] = tested on: KB cells (human oral epidermoid carcinoma); test: Trypan blue exclusion assay, cytostatic activity, KB; type: cell-based; details: incubation 48h, 3 experiments, read-out: ID50 (the source's name)
MCF-7 cells = test: Fluorescence activated cell sorting (FACS), cell cycle phase; type: cell-based, human; details: for cell cycle phase distribution: 48 hours
Procedure: Fluorescence activated cell sorting (FACS) was used to determine what percentage of cells could be found in the designated cell cycle phase after 48 hours of continuous HHC exposure. There are four distinct phases in the cell cycle which lead to duplication of the cell and its genetic material. In the G0/G1 phase the cell is at rest or is performing miscellaneous biosynthetic functions. During the S phase, DNA synthesis occurs which leads to replication of the chromosomes. G2 is the pre-mitotic interval while the M phase is the time during which the cell divides.
MCF-7 cells were exposed to concentrations of 1.5 μM and 25 μM of HHC, and DMSO. DMSO had no significant effect on the cell cycle, with a profile almost identical to that of the "no drug" control.

[2] = tested on: MRSA (Methicillin resistant Staphylococcus A.); test: Minimum inhibitory concentration, MRSA; type: cell-based, Staphylococcus aureus
[3] = tested on: Multidrug resistant Staphylococcus (except to Vancomycin); test: Minimum inhibitory concentration, multidrug resistant Staphylococcus; type: cell-based
[4] = Determination of maximal tolerated dose (MTD), single intraperitoneal injection; details: mouse, in vivo, ip
Procedure: (§1) Eight groups of BDF1 mice (5 animals/group) were used to determine a maximal tolerated dose (MTD) for HHC.
(§2) All mice were weighed, the weight being used to determine blood volume for each animal. The amount of drug necessary to achieve a theoretical concentration of drug in the animal (e.g, 50, 100, 150 μM etc.) was calculated based on the formula: blood volume=8% body weight of the animal. Drug solutions were made using DMSO as the solvent and a single intraperitoneal injection of a volume of 100-120 μl was given. […] Based on the above, the MTD is determined to be at 200 μM (~6.5 mg/kg). To confirm the MTD, it is necessary to dose the animals with the predetermined MTD once a day for consecutive days following established experimental treatment times (i.e., 5 days for in vivo tumor inhibition studies).

BDF1 mice = test: as above; details: mouse, in vivo, ip
Procedure: as §1, §2

Leishmania tarentolae = test: Anti-protozoal activity, cell counts of Leishmania tarentolae; type: cell-based; details: for activity at 0.1 µM / activity at 0.25 µM / activity at 0.5 µM / activity at 1 µM / activity at 2.5 µM: Leishmania tarentolae, read-out: % control
Procedure: Leishmania tarentolae was grown in BHI (brain heart infusion; Difco) supplemented with 10 μg/ml of hemin. Leishmanial cells were counted by doing a 1:1 dilution of the cells with 3% formaldehyde/1×SSC (0.15 M NaCl/0.015 M sodium citrate) solution. Cells were seeded at log phase (0.5-1×10^6 cells/ml) in T-25 cm^2 flasks. Equal volumes of HHC at different concentrations (0.1, 0.25, 0.5, 1.0, 2.5 μM) were added to the cells. DMSO at the same volume as that used for HHC was included as solvent control. At each time point (6, 12, 18, 24, 32 hrs post-drug addition), cells were observed under the microscope for possible effect of HHC on Leishmanial motility. Aliquots of cells (100 μl) were removed from each flask at each time point, diluted as mentioned above and cell numbers were quantitated using a hemocytometer.

[5] = Mannering et al.; cited from earlier work
[6] = tested on: MRSA (Methicillin Resistant Staphylococcus aureus); test: Patient isolates evaluated for antibiotic sensitivity, MRSA; details: for antibiotic sensitivity: threshold not given

**Q.** What does the source list for CC(C)CCC1=C(O)C(C(=O)C(C)C)=C(O)C(CCC(C)C)(CCC(C)C)C1=O [HHC, hexahydrocolupulone]?
**A.** IC50 [1]: 850 nM; cell cycle phase distribution (MCF-7 cells; 1.5 μM HHC): increase the number of cells in G0/G1 and decrease the number of cells in S phase; cell cycle phase distribution (MCF-7 cells; 25 μM HHC): decrease in the number of cells in G0/G1 and an increase in the number of cells in S phase; effect upon G1-S phase transition (MCF-7 cells; FACS): apparent effect upon the G1-S phase transition of the cell cycle; also recorded: has an effect upon the G1-S phase transition of the cell cycle; MIC ([2]; MRSA): 2.5 µM (≈ 1.02 µg/mL); cross resistance with other antibiotics ([2]; drug resistant MRSA): HHC is not; MIC [3]: 2.5 µM (≈ 1.02 µg/mL); MTD [4]: ~6.5 mg/kg; maximal tolerated dose (MTD) (BDF1 mice): 200 µM; cells/ml (Leishmania tarentolae; 0.1 μM, 6 hr): 2.65 no. of cells × 10^6; cells/ml (Leishmania tarentolae; 0.1 μM, 12 hr): 6.58 no. of cells × 10^6; cells/ml (Leishmania tarentolae; 0.1 μM, 18 hr): 12.1 no. of cells × 10^6; cells/ml (Leishmania tarentolae; 0.1 μM, 24 hr): 21.2 no. of cells × 10^6; cells/ml (Leishmania tarentolae; 0.1 μM, 32 hr): 43.9 no. of cells × 10^6; cells/ml (Leishmania tarentolae; 0.25 μM, 6 hr): 3.0 no. of cells × 10^6; cells/ml (Leishmania tarentolae; 0.25 μM, 12 hr): 7.35 no. of cells × 10^6; cells/ml (Leishmania tarentolae; 0.25 μM, 18 hr): 12.7 no. of cells × 10^6; cells/ml (Leishmania tarentolae; 0.25 μM, 24 hr): 19.72 no. of cells × 10^6; cells/ml (Leishmania tarentolae; 0.25 μM, 32 hr): 40.1 no. of cells × 10^6; cells/ml (Leishmania tarentolae; 0.5 μM, 6 hr): 2.43 no. of cells × 10^6; cells/ml (Leishmania tarentolae; 0.5 μM, 12 hr): 5.13 no. of cells × 10^6; cells/ml (Leishmania tarentolae; 0.5 μM, 18 hr): 9.22 no. of cells × 10^6; cells/ml (Leishmania tarentolae; 0.5 μM, 24 hr): 14.2 no. of cells × 10^6; cells/ml (Leishmania tarentolae; 0.5 μM, 32 hr): 29.2 no. of cells × 10^6; cells/ml (Leishmania tarentolae; 1.0 μM, 6 hr): 2.09 no. of cells × 10^6; cells/ml (Leishmania tarentolae; 1.0 μM, 12 hr): 2.53 no. of cells × 10^6; cells/ml (Leishmania tarentolae; 1.0 μM, 18 hr): 2.55 no. of cells × 10^6; cells/ml (Leishmania tarentolae; 1.0 μM, 24 hr): 2.9 no. of cells × 10^6; cells/ml (Leishmania tarentolae; 1.0 μM, 32 hr): 3.4 no. of cells × 10^6; cells/ml (Leishmania tarentolae; 2.5 μM, 6 hr): 1.81 no. of cells × 10^6; cells/ml (Leishmania tarentolae; 2.5 μM, 12 hr): 3.03 no. of cells × 10^6; cells/ml (Leishmania tarentolae; 2.5 μM, 18 hr): 3.38 no. of cells × 10^6; cells/ml (Leishmania tarentolae; 2.5 μM, 24 hr): 2.13 no. of cells × 10^6; cells/ml (Leishmania tarentolae; 2.5 μM, 32 hr): 2.82 no. of cells × 10^6; activity at 0.1 µM (Leishmania tarentolae; 0.1 μM, 6 hr): 76.4%; activity at 0.1 µM (Leishmania tarentolae; 0.1 μM, 12 hr): 96.6%; activity at 0.1 µM (Leishmania tarentolae; 0.1 μM, 18 hr): 96.8%; activity at 0.1 µM (Leishmania tarentolae; 0.1 μM, 24 hr): 118%; activity at 0.1 µM (Leishmania tarentolae; 0.1 μM, 32 hr): 114%; activity at 0.25 µM (Leishmania tarentolae; 0.25 μM, 6 hr): 86.5%; activity at 0.25 µM (Leishmania tarentolae; 0.25 μM, 12 hr): 103%; activity at 0.25 µM (Leishmania tarentolae; 0.25 μM, 18 hr): 101%; activity at 0.25 µM (Leishmania tarentolae; 0.25 μM, 24 hr): 110%; activity at 0.25 µM (Leishmania tarentolae; 0.25 μM, 32 hr): 104%; activity at 0.5 µM (Leishmania tarentolae; 0.5 μM, 6 hr): 70%; activity at 0.5 µM (Leishmania tarentolae; 0.5 μM, 12 hr): 72.1%; activity at 0.5 µM (Leishmania tarentolae; 0.5 μM, 18 hr): 73.8%; activity at 0.5 µM (Leishmania tarentolae; 0.5 μM, 24 hr): 79.3%; activity at 0.5 µM (Leishmania tarentolae; 0.5 μM, 32 hr): 75.6%; activity at 1 µM (Leishmania tarentolae; 1.0 μM, 6 hr): 60.2%; activity at 1 µM (Leishmania tarentolae; 1.0 μM, 12 hr): 35.5%; activity at 1 µM (Leishmania tarentolae; 1.0 μM, 18 hr): 20.4%; activity at 1 µM (Leishmania tarentolae; 1.0 μM, 24 hr): 16.2%; activity at 1 µM (Leishmania tarentolae; 1.0 μM, 32 hr): 8.8%; activity at 2.5 µM (Leishmania tarentolae; 2.5 μM, 6 hr): 52.2%; activity at 2.5 µM (Leishmania tarentolae; 2.5 μM, 12 hr): 42.6%; activity at 2.5 µM (Leishmania tarentolae; 2.5 μM, 18 hr): 27%; activity at 2.5 µM (Leishmania tarentolae; 2.5 μM, 24 hr): 11.9%; activity at 2.5 µM (Leishmania tarentolae; 2.5 μM, 32 hr): 7.3%; activity relative to non-hydrogenated parent [5]: more active than colupulone; MIC ([6]; Staphylococcus aureus, read-out: [HHC] (MIC)): 1.01 µg/mL (≈ 2.5 µM); antibiotic sensitivity ([6]; patient D): S; [HHC] (MIC) ([6]; patient E): 1.015 µg/mL; antibiotic sensitivity ([6]; patient E): S; [HHC] (MIC) ([6]; patient F): 1.015 µg/mL; antibiotic sensitivity ([6]; patient F): S
